Results from PMC5363571 (Oncotarget, 2016).
Where a name gives a salt, the structure may show the parent alone.

Target: USP7 (Homo sapiens, UniProt Q93009)
Experiment: biochemical
Parameters: Ub-AMC hydrolysis by recombinant USP7 (20 nM), 30 min pre-incubation, fluorescence read-out
Conditions: read-out: % Inhibition at 50 μM

Sequence of USP7 (Q93009 whole entry): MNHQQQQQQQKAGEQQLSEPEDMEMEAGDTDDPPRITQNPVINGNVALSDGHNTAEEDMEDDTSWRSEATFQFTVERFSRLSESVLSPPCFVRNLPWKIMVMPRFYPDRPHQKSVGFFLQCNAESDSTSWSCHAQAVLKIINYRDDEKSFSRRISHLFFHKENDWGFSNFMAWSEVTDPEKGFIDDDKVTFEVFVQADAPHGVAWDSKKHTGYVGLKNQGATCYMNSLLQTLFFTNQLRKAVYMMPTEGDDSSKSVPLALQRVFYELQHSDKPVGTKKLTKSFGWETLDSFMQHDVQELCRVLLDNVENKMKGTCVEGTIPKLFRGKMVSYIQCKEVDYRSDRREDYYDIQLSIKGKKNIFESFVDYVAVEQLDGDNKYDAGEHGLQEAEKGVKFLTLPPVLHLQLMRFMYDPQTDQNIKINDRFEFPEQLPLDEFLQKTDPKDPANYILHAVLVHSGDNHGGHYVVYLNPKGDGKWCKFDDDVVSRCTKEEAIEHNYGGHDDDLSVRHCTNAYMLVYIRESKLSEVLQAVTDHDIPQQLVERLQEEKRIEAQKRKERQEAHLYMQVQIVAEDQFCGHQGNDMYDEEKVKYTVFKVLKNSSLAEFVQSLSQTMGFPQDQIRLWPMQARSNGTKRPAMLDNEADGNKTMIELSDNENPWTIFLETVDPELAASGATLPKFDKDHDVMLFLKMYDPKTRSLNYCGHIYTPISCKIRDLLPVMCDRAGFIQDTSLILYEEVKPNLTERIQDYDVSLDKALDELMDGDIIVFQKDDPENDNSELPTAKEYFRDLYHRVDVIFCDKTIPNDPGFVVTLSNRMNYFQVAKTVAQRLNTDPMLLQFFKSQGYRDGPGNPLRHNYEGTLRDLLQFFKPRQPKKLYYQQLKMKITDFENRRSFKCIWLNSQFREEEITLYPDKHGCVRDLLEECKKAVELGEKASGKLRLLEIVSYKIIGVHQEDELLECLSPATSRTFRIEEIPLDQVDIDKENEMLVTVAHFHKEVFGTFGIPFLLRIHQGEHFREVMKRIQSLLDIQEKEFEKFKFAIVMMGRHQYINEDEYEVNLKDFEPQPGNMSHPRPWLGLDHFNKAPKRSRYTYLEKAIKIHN

Structure (SMILES) | inhibition at 50 µM [%]
CCC(C)n1ncn(-c2ccc(N3CCN(c4ccc(OC[C@H]5CO[C@](Cn6cncn6)(c6ccc(Cl)cc6Cl)O5)cc4)CC3)cc2)c1=O (mixture of isomers) [Itraconazole] | < 5
CCCCC(C)(O)C/C=C/[C@H]1[C@H](O)CC(=O)[C@@H]1CCCCCCC(=O)OC (mixture of isomers) [Misoprostol] | < 5
CC(C)NCC(O)c1ccc(O)c(O)c1 (racemic) [Isoproterenol HCl (rac)] | < 5
N[C@@H]1C[C@H]1c1ccccc1 (racemic) [Tranylcypromine] | < 5
Nc1ccn([C@H]2CC[C@@H](CO)O2)c(=O)n1 [2',3' - dideoxycytidine] | < 5
Cc1cn([C@H]2C[C@H](N=[N+]=[N-])[C@@H](CO)O2)c(=O)[nH]c1=O [3'-azido-3'-deoxythymidine] | < 5
O=C(O)COC(=O)Cc1ccccc1Nc1c(Cl)cccc1Cl [Aceclofenac] | < 5
COc1ccc2c(c1)c(CC(=O)OCC(=O)O)c(C)n2C(=O)c1ccc(Cl)cc1 [Acemetacin] | 19.8
CC(=O)OCC[N+](C)(C)C [Acetylcholine Cl] | < 5
CC(=O)Oc1ccccc1C(=O)O [Acetylsalicylic acid] | < 5
Cc1cnc(C(=O)O)c[n+]1[O-] [Acipimox] | < 5
Nc1nc2c(ncn2COCCO)c(=O)[nH]1 [Acycloguanosine] | < 5
NCCCC(O)(P(=O)(O)O)P(=O)(O)O [Alendronate] | < 5
Oc1ncnc2[nH]ncc12 [Allopurinol] | < 5
C=CCc1ccccc1OCC(O)CNC(C)C (stereo not shown) [Alprenolol HCl] | < 5
CCCCC[C@H](O)/C=C/[C@H]1[C@H](O)CC(=O)[C@@H]1CCCCCCC(=O)O [Alprostadil] | < 5
NC12CC3CC(CC(C3)C1)C2 [Amantadine HCl] | < 5
Nc1c(Br)cc(Br)cc1CN[C@H]1CC[C@H](O)CC1 [Ambroxol] | < 5
CC(NC(C)(C)C)C(=O)c1cccc(Cl)c1 (stereo not shown) [Amfebutamone] | < 5
Cn1c(=O)c2[nH]cnc2n(C)c1=O [Aminophylline] | < 5
CCCCc1oc2ccccc2c1C(=O)c1cc(I)c(OCCN(CC)CC)c(I)c1 [Amiodarone] | < 5
CCN1CCCC1CNC(=O)c1cc(S(=O)(=O)CC)c(N)cc1OC (stereo not shown) [Amisulpride] | < 5
CCC(C)(C)c1ccc(CC(C)CN2C[C@@H](C)O[C@@H](C)C2)cc1 (stereo partly shown) [Amorolfine] | < 5
Clc1ccc2c(c1)C(N1CCNCC1)=Nc1ccccc1O2 [Amoxapine] | 16.8
CC(C)CN(C[C@@H](O)[C@H](Cc1ccccc1)NC(=O)O[C@H]1CCOC1)S(=O)(=O)c1ccc(N)cc1 [Amprenavir] | < 5
Nc1cc(-c2ccncc2)c[nH]c1=O [Amrinone] | < 5

Structure (SMILES) | inhibition at 50 µM [%]
O=C1CN2Cc3c(ccc(Cl)c3Cl)N=C2N1 [Anagrelide] | 8.4
COc1ccc(C(=O)N2CCCC2=O)cc1 [Aniracetam] | < 5
CN1CCc2cccc3c2[C@H]1Cc1ccc(O)c(O)c1-3 [Apomorphine r (-)] | < 5
C[C@@H](O[C@H]1OCCN(Cc2n[nH]c(=O)[nH]2)[C@H]1c1ccc(F)cc1)c1cc(C(F)(F)F)cc(C(F)(F)F)c1 [Aprepitant] | < 5
CC1CNc2c(cccc2S(=O)(=O)N[C@@H](CCCNC(=N)N)C(=O)N2CC[C@@H](C)C[C@@H]2C(=O)O)C1 (stereo partly shown) [Argatroban] | < 5
O=C1CCc2ccc(OCCCCN3CCN(c4cccc(Cl)c4Cl)CC3)cc2N1 [Aripiprazole] | < 5
C[C@H]1[C@H](OC(=O)CCC(=O)O)O[C@@H]2O[C@@]3(C)CC[C@H]4[C@H](C)CC[C@@H]1[C@@]24OO3 [Artesunate] | < 5
C[C@H]1[C@H](C)CC[C@]2(C(=O)O)CC[C@]3(C)C(=CC[C@@H]4[C@@]5(C)C[C@@H](O)[C@H](O)[C@@](C)(CO)[C@@H]5CC[C@]43C)[C@H]12 [Asiatic acid] | < 5
CN1[C@@H]2CC[C@H]1C[C@@H](OC(=O)C(CO)c1ccccc1)C2 (stereo partly shown) [Atropine sulfate] | < 5
CC1(C)CC[C@]2(C(=O)O)CC[C@]3(C)C(=CC[C@@H]4[C@@]5(C)C[C@H](O)[C@H](O)[C@@](C)(CO)[C@@H]5CC[C@]43C)[C@@H]2C1 [Bayogenin] | < 5
CN(C)CCCOc1nn(Cc2ccccc2)c2ccccc12 [Benzydamine] | < 5
CC(C)COCC(CN(Cc1ccccc1)c1ccccc1)N1CCCC1 (stereo not shown) [Bepridil] | < 5
C=C(C)[C@@H]1CC[C@]2(C(=O)O)CC[C@]3(C)[C@H](CC[C@@H]4[C@@]5(C)CC[C@H](O)C(C)(C)[C@@H]5CC[C@]43C)[C@@H]12 [Betulinic acid] | 25.8
CC(C)(Oc1ccc(CCNC(=O)c2ccc(Cl)cc2)cc1)C(=O)O [Bezafibrate] | < 5
COc1ccccc1Oc1c(NS(=O)(=O)c2ccc(C(C)(C)C)cc2)nc(-c2ncccn2)nc1OCCO [Bosentan] | < 5
CC(C)(C)[C@]1(O)CCN2C[C@H]3c4ccccc4CCc4cccc(c43)[C@@H]2C1 [Butaclamol (+)] | < 5
CN(Cc1ccc(C(C)(C)C)cc1)Cc1cccc2ccccc12 [Butenafine] | 24.9
Clc1ccc(CCC(Cn2ccnc2)Sc2c(Cl)cccc2Cl)cc1 (stereo not shown) [Butoconazole nitrate] | < 5
CC[C@@]1(O)C(=O)OCc2c1cc1n(c2=O)Cc2cc3ccccc3nc2-1 [Camptothecin] | < 5
CCOc1nc2cccc(C(=O)O)c2n1Cc1ccc(-c2ccccc2-c2nnn[nH]2)cc1 [Candesartan] | < 5
CC1=C(/C=C/C(C)=C/C=C/C(C)=C/C=C/C=C(C)/C=C/C=C(C)/C=C/C2=C(C)C(=O)CCC2(C)C)C(C)(C)CCC1=O [Canthaxanthin] | < 5
CCCCCOC(=O)Nc1nc(=O)n([C@@H]2O[C@H](C)[C@@H](O)[C@H]2O)cc1F [Capecitabine] | < 5
C[C@H](CS)C(=O)N1CCC[C@H]1C(=O)O [Captopril] | < 5
C[C@@](Cc1ccc(O)c(O)c1)(NN)C(=O)O [Carbidopa] | < 5
O=C(O)COCCN1CCN(C(c2ccccc2)c2ccc(Cl)cc2)CC1 (stereo not shown) [Cetirizine 2HCl] | < 5
CN(C)CCCN1c2ccccc2Sc2ccc(Cl)cc21 [Chlorpromazine HCl] | < 5

Structure (SMILES) | inhibition at 50 µM [%]
CC1(C)C[C@@H]1C(=O)N/C(=C\CCCCSC[C@H](N)C(=O)O)C(=O)O [Cilastatin] | < 5
COCCOC(=O)C1=C(C)NC(C)=C(C(=O)OC/C=C/c2ccccc2)C1c1cccc([N+](=O)[O-])c1 (stereo not shown) [Cilnidipine] | < 5
CN(C(=O)CCCOc1ccc2[nH]c(=O)ccc2c1)C1CCCCC1 [Cilostamide] | < 5
CC(C)NCC(O)c1ccc(N)c(C#N)c1 (stereo not shown) [Cimaterol] | < 5
CN/C(=N\CCSCc1nc[nH]c1C)NC#N [Cimetidine] | < 5
CC[C@H]1OC(=O)[C@H](C)[C@@H](O[C@H]2C[C@@](C)(OC)[C@@H](O)[C@H](C)O2)[C@H](C)[C@@H](O[C@@H]2O[C@H](C)C[C@H](N(C)C)[C@H]2O)[C@](C)(OC)C[C@@H](C)C(=O)[C@H](C)[C@@H](O)[C@]1(C)O [Clarithromycin] | < 5
CC(C)(C)NCC(O)c1cc(Cl)c(N)c(Cl)c1 (stereo not shown) [Clenbuterol] | < 5
CC(C)(C)C(=O)C(Oc1ccc(Cl)cc1)n1ccnc1 (stereo not shown) [Climbazole] | < 5
NC1CCN(c2c(F)cc3c(=O)c(C(=O)O)cn(C4CC4)c3c2Cl)C1 (stereo not shown) [Clinafloxacin HCl] | < 5
CCC[C@@H]1C[C@@H](C(=O)N[C@@H]([C@H]2O[C@H](SC)[C@H](O)[C@@H](O)[C@H]2O)[C@H](C)Cl)N(C)C1 [Clindamycin HCl] | < 5
CCCCCCCCCCCCCCCC(=O)O[C@@H]1[C@@H](O)[C@@H](O)[C@@H]([C@H](NC(=O)[C@@H]2C[C@@H](CCC)CN2C)[C@H](C)Cl)O[C@@H]1SC [Clindamycin palmitate] | < 5
CCC(=O)O[C@]1(C(=O)CCl)[C@@H](C)C[C@H]2[C@@H]3CCC4=CC(=O)C=C[C@]4(C)[C@@]3(F)[C@@H](O)C[C@@]21C [Clobetasol propionate] | 42.3
O=P(O)(O)C(Cl)(Cl)P(=O)(O)O [Clodronate disodium] | < 5
CCN(CC)CCOc1ccc(C(=C(Cl)c2ccccc2)c2ccccc2)cc1 [Clomiphene citrate] | < 5
C[C@@H]1CCC[C@H](C)N1NC(=O)c1ccc(Cl)c(S(N)(=O)=O)c1 [Clopamide] | < 5
COC(=O)[C@H](c1ccccc1Cl)N1CCc2sccc2C1 [Clopidogrel sulfate] | < 5
C[C@H]1[C@H](C)CC[C@]2(C(=O)O)CC[C@]3(C)C(=CC[C@@H]4[C@@]5(C)C[C@@H](O)[C@H](O)C(C)(C)[C@@H]5CC[C@]43C)[C@H]12 [Corosolic acid] | 43.2
C[C@]12C[C@H](O)[C@H]3[C@@H](CCC4=CC(=O)CC[C@@]43C)[C@@H]1CC[C@@H]2C(=O)CO [Corticosterone] | < 5
CC=CC(=O)N(CC)c1ccccc1C [Crotamiton] | < 5
N=c1ccn2c(n1)O[C@H]1[C@H](O)[C@@H](CO)O[C@H]12 [Cyclocytidine HCl] | 29.5
CN1CCC(=C2c3ccccc3C=Cc3ccccc32)CC1 [Cyproheptadine] | < 5
CC(=O)O[C@]1(C(C)=O)CC[C@H]2[C@@H]3C=C(Cl)C4=CC(=O)[C@@H]5C[C@@H]5[C@]4(C)[C@H]3CC[C@@]21C [Cyproterone acetate] | 28.6
Nc1ccn([C@@H]2O[C@H](CO)[C@@H](O)[C@@H]2O)c(=O)n1 [Cytarabine] | < 5
CN(C)/N=N/c1[nH]cnc1C(N)=O [Dacarbazine] | < 5
